Earlier results in patent US20070266895A1, “Aliphatic Hydrocarbon Soluble Red Dyes” (priority 2004, published 2007).

direct solubility in essentially aliphatic hydrocarbon based fuels (diesel or home heating oil): virtually no direct solubility
direct solubility in aromatic hydrocarbon containing gasolines (dry powder dye): limited direct solubility
Structure (SMILES): Cc1ccccc1/N=N/c1ccc(/N=N/c2c(O)ccc3ccccc23)c(C)c1 [C.I. Solvent Red 24]
